Assay results: patent US20250099423A1, “PIPERAZINE-BASED AGONISTS OF LFA-1 AND VLA-4” (Texas Heart Institute, priority 2021, published 2025)

Columns and labels:
α4β1/VCAM-1 = target: T1, α4β1/VCAM-1 (Homo sapiens, UniProt P05556+P13612); assay: Static cell adhesion assay, Jurkat cells on VCAM-1 (α4β1/VCAM-1); type: cell-based; details: ratio compound activity/control THI0019 (average 33 μM) run on the same plate
T1 construct: The Jurkat (VCAM-1 assays) and HSB (ICAM-1 assays) cell lines were obtained from American Type Culture Collection; endogenous in cells; host or cells: Jurkat cells (ATCC)
Description: (§1) For in vitro cell adhesion assays, compounds were dissolved in DMSO to make a series of stock solutions such that a 1:100 dilution in assay buffer would yield the desired final working concentrations in 1% DMSO (vehicle). Human VCAM-1 and ICAM-1 were purchased from R&D Systems (Minneapolis, MN). The Jurkat (VCAM-1 assays) and HSB (ICAM-1 assays) cell lines were obtained from American Type Culture Collection (Manassas, VA) and were maintained in recommended culture media.
(§2) Assays were performed as previously described in 1. Vanderslice, P., Woodside, D. G., Caivano, A. R., Decker, E. R., Munsch, C. L., Sherwood, S. J., Lejeune, W. S., Miyamoto, Y. J., McIntyre, B. W., Tilton, R. G., and Dixon, R. A. (2010) Potent in vivo suppression of inflammation by selectively targeting the high affinity conformation of integrin alpha4beta1. Biochem Biophys Res Commun 400, 619-624; and 2. Vanderslice, P., Biediger, R. J., Woodside, D. G., Brown, W. S., Khounlo, S., Warier, N. D., Gundlach, C. W. t., Caivano, A. R., Bornmann, W. G., Maxwell, D. S., McIntyre, B. W., Willerson, J. T., and Dixon, R. A. (2013) Small molecule agonist of very late antigen-4 (VLA-4) integrin induces progenitor cell adhesion. J Biol Chem 288, 19414-19428. VCAM-1 or ICAM-1 ligand in 50 μL of 50 mM Tris-HCl (pH 7.4), 150 mM NaCl, (TBS) was added to wells of a 96-well plate and allowed to coat overnight at 4° C. To maximize the window to evaluate agonist activity, a sub-optimal coating concentration of ligand was used, typically between 0.5 and 5 μg/mL in 50 μL TBS for VCAM-1 and ICAM-1 respectively. This ligand concentration corresponded approximately to that which would yield≤ 5% adhesion as determined by dose-response curves. Briefly, 2×10^6 cells were labeled for 30 minutes with calcein-AM (Molecular Probes), washed, resuspended in binding buffer, and added to triplicate wells of ligand-coated plates (2×10^5 cells/well) that had been blocked with 2% BSA. After a 30-minute incubation at 37° C., the plates were washed 3 times with binding buffer, the adherent cells were lysed, and fluorescence was measured on a Tecan Safire^2 plate reader. The binding buffer was PBS with 1 mM MgCl2, 50% FBS for α4β1/VCAM-1 assays and PBS with 2 mM MgCl2, 5 mM EGTA, 50% FBS for αLβ2/ICAM-1 assays. EC50 is defined as the concentration of compound required to achieve 50% of the maximal response.

LFA-1 = target: T2, LFA-1 (Homo sapiens, UniProt P05107+P20701); assay: Static cell adhesion assay, HSB cells on ICAM-1 (αLβ2/ICAM-1; LFA-1); type: cell-based; details: Dose 3 μM, compound and THI0349 at the same concentration; ratio >1 = more potent agonist
T2 construct: The Jurkat (VCAM-1 assays) and HSB (ICAM-1 assays) cell lines were obtained from American Type Culture Collection; endogenous in cells; host or cells: HSB cells (ATCC)
Description: as §1, §2
THI0019 and THI0349 (average 11 μM) reported values here were obtained under the assay conditions reported herein and ran higher in the presence of serum than those values under different assay conditions. […] Relative to THI0019 (average 33 μM) as a control against CS1, the ratio of (compound activity/control) is as follows: Group I< or =1. Group II at least a ratio of >1 up to 2× that of THI0019 ran on the same plate; Group III is >2× of THI0019 but less than 5×; and Group IV>5× of THI0019 (with an upper limit of approximately 200 mM). In relation to LAD (Leukocyte Adhesion Deficiency), LFA-1 ratios are determined by dividing the relative fluorescence units (RFU) of each compound over that of the reference standard of THI0349, (RFU Compound/RFU of THI0349). Against LFA-1, the signal for THI0349 at 3 μM was compared to the claimed compounds at the same concentration.

T2 sequence (P20701 26-1170): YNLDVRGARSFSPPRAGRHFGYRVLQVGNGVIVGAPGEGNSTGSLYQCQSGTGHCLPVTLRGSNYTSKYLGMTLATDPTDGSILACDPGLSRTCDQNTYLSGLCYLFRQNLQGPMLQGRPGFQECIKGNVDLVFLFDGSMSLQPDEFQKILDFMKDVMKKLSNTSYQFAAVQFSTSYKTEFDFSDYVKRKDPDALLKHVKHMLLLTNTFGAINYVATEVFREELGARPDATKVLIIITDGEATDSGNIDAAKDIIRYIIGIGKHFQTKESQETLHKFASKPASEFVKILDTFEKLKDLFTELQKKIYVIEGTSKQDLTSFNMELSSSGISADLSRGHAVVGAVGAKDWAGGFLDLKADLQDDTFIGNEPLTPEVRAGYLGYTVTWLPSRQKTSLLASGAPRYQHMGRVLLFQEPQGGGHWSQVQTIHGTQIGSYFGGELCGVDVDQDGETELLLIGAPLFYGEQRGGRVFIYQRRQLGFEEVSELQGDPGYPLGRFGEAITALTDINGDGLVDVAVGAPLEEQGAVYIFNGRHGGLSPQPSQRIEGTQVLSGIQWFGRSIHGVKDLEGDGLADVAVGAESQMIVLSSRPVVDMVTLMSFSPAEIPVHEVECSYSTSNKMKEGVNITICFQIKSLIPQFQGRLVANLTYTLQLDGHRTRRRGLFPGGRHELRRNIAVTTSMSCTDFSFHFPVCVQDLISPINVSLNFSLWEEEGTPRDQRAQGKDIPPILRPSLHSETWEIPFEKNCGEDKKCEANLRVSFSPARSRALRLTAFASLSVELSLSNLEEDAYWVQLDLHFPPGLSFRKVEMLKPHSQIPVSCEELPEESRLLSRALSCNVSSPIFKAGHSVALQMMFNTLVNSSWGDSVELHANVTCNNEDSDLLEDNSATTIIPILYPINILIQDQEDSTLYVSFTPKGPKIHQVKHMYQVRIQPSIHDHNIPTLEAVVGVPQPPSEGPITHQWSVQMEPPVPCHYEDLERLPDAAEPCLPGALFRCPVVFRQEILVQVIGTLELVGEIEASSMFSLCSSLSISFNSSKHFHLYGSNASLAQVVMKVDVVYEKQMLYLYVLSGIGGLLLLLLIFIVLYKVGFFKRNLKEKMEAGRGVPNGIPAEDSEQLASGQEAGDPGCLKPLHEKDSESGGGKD
T2 sequence (P05107 23-769): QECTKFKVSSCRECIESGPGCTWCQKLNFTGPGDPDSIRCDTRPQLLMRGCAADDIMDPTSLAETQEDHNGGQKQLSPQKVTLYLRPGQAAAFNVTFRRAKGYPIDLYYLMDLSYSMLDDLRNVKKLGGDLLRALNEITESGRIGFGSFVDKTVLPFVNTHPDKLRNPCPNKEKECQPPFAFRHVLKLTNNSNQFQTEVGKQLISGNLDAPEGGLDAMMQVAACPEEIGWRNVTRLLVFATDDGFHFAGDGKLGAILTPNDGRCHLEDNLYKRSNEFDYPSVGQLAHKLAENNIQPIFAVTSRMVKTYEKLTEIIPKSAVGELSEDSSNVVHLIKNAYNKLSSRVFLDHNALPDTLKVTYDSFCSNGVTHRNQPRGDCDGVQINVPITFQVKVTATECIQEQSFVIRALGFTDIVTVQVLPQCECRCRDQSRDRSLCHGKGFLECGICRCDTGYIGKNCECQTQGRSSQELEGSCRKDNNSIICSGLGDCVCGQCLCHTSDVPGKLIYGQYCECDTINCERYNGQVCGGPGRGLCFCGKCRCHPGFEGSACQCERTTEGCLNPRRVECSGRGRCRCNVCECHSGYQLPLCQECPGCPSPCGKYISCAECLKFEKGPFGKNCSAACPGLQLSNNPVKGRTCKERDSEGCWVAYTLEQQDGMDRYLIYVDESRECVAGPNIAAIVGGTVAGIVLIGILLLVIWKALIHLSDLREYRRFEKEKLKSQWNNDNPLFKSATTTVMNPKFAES
T1 sequence (P13612 34-1032): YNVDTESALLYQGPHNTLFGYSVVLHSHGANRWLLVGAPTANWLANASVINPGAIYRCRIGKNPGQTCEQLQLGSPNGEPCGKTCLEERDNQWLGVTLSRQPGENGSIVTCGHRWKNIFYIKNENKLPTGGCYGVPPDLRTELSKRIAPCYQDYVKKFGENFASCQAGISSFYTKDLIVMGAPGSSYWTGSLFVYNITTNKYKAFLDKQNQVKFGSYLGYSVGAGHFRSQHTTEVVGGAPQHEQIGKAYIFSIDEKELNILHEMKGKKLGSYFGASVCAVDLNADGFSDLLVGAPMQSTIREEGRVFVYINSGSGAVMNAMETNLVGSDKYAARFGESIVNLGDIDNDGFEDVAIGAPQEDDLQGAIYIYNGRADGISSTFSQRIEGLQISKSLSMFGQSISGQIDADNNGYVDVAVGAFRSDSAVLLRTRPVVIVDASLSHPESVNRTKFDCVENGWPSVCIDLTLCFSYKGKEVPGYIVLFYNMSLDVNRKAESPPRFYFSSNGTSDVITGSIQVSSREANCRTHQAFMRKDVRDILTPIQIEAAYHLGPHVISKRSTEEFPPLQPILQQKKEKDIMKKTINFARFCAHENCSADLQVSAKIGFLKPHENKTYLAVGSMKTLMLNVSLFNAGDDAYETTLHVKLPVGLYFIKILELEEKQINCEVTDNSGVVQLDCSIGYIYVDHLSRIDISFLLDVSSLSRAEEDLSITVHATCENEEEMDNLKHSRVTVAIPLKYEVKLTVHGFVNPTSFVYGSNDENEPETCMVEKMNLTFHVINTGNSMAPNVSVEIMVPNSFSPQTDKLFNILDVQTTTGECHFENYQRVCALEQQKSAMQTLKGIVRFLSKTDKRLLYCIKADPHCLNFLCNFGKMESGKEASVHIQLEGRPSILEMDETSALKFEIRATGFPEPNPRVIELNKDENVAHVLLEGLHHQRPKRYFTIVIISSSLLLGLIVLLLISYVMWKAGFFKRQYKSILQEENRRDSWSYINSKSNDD
T1 sequence (P05556 21-798): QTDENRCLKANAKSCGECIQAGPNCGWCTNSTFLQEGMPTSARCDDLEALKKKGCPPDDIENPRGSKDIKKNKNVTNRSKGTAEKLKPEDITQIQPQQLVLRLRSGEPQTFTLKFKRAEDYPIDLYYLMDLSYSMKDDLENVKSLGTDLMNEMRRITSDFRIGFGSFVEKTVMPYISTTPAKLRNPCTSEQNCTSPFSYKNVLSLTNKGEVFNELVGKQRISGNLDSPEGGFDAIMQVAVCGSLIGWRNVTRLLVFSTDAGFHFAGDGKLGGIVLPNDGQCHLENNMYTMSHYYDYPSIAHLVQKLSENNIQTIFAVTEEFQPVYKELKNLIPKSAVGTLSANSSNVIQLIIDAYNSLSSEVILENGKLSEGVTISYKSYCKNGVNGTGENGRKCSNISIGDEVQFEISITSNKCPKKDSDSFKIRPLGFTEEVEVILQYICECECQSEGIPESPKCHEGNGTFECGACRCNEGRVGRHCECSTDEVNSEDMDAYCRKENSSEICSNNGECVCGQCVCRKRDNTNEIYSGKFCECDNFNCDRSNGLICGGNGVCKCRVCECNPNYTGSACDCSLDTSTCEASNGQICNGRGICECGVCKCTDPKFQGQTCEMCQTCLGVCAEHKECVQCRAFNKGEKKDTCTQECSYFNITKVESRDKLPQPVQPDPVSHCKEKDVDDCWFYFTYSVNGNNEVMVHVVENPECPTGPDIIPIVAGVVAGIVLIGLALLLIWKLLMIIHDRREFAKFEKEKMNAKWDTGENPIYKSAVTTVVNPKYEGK

| Compound | Average Ratio Compound to THI0019 (Activity against CS1) (α4β1/VCAM-1) | LAD Raw Fluorescence Units against LFA-1; Ratio of raw counts Compound/THI0349 (LFA-1) |
| --- | --- | --- |
| COc1cccc(CN(Cc2cccc(OC)c2)C(=O)OCCN2CCN(CCOC(=O)N(Cc3cccc(OC)c3)Cc3cccc(OC)c3)CC2)c1 [piperazine-1,4-diylbis(ethane-2,1-diyl) bis(bis(3-methoxybenzyl)carbamate)] | Group I (Group I< or =1) | 4.7 fold increased response |
| COc1ccc(CCOC(=O)N2CCN(CC(=O)N(Cc3ccc(OC)cc3)Cc3ccc(OC)cc3)CC2)cc1 [4-methoxyphenethyl 4-(2-(bis(4-methoxybenzyl)amino)-2-oxoethyl)piperazine-1-carboxylate] | Group II (Group II at least a ratio of >1 up to 2× that of THI0019 ran on the same plate) | 4.6 fold increased response |
| COc1cccc(CN(Cc2ccc(N(C)C)cc2)C(=O)OCCN2CC(=O)N(CCOC(=O)N(Cc3ccc(N(C)C)cc3)Cc3cccc(OC)c3)CC2=O)c1 [(2,5-dioxopiperazine-1,4-diyl)bis(ethane-2,1-diyl) bis(4-(dimethylamino)benzyl (3-methoxybenzyl)carbamate)] | Group I (Group I< or =1) | 7.8 fold increased response |
| COc1ccc(CN(Cc2ccc(OC)cc2)C(=O)OCCN2CC(=O)N(CCOC(=O)N(Cc3ccc(OC)cc3)Cc3ccc(OC)cc3)CC2=O)cc1 [(2,5-dioxopiperazine-1,4-diyl)bis(ethane-2,1-diyl) bis(bis(4-methoxybenzyl)carbamate)] | Group I (Group I< or =1) | 7.8 fold increased response |
| COc1ccc(CN(Cc2ccc(N(C)C)cc2)C(=O)OCCN2CC(=O)N(CCOC(=O)N(Cc3ccc(OC)cc3)Cc3ccc(N(C)C)cc3)CC2=O)cc1 [(2,5-dioxopiperazine-1,4-diyl)bis(ethane-2,1-diyl) bis(4-(dimethylamino)benzyl (4-methoxybenzyl)carbamate)] | Group I (Group I< or =1) | 9.9 fold increased response |
| COc1ccc(CN(Cc2ccc(OC)cc2)C(=O)CN2CCN(C(=O)OCc3ccccc3)CC2)cc1 [benzyl 4-(2-(bis(4-methoxybenzyl)amino)-2-oxoethyl)piperazine-1-carboxylate] | Group II (Group II at least a ratio of >1 up to 2× that of THI0019 ran on the same plate) | 3.3 fold increased response |
| COc1cccc(CN(Cc2cccc(OC)c2)C(=O)CCCCN2CCN(C(=O)OCc3ccccc3)CC2)c1 [benzyl 4-(5-(bis(3-methoxybenzyl)amino)-5-oxopentyl)piperazine-1-carboxylate] | Group II (Group II at least a ratio of >1 up to 2× that of THI0019 ran on the same plate) | 3.9 fold increased response |
| O=C(CCCCN1CCN(C(=O)OCc2ccccc2)CC1)N(Cc1cccs1)Cc1cccs1 [benzyl 4-(5-(bis(thiophen-2-ylmethyl)amino)-5-oxopentyl)piperazine-1-carboxylate] | Group I (Group I< or =1) | 0.9 fold response |
| COc1ccc(CN(Cc2ccc(N(C)C)cc2)C(=O)CN2CCN(C(=O)OCc3ccccc3)CC2)cc1 [benzyl 4-(2-((4-(dimethylamino)benzyl)(4-methoxybenzyl)amino)-2-oxoethyl)piperazine-1-carboxylate] | Group III (Group III is >2× of THI0019 but less than 5×) | 1.2 fold increased response |
| COc1ccc(CN(CC(C)C)C(=O)CN2CC(=O)N(CC(=O)N(Cc3ccc(OC)cc3)CC(C)C)CC2=O)cc1 [2,2′-(2,5-dioxopiperazine-1,4-diyl)bis(N-isobutyl-N-(4-methoxybenzyl)acetamide)] | Group III (Group III is >2× of THI0019 but less than 5×) | 0.15 fold response |
| COc1ccc(CN(Cc2ccc(O)cc2)C(=O)CN2CCN(C(=O)OCc3ccccc3)CC2)cc1 [benzyl 4-(2-((4-hydroxybenzyl)(4-methoxybenzyl)amino)-2-oxoethyl)piperazine-1-carboxylate] | Group II (Group II at least a ratio of >1 up to 2× that of THI0019 ran on the same plate) | 1.3 fold increased response |

The remaining lines, values ahead:

| Average Ratio Compound to THI0019 (Activity against CS1) (α4β1/VCAM-1) | LAD Raw Fluorescence Units against LFA-1; Ratio of raw counts Compound/THI0349 (LFA-1) | Compound |
| --- | --- | --- |
| Group I (Group I< or =1) | 3 fold increased response | COc1ccc(CN(Cc2ccc(OC)cc2)C(=O)CCCN2CCN(C(=O)OCc3ccccc3)CC2)cc1 [benzyl 4-(4-(bis(4-methoxybenzyl)amino)-4-oxobutyl)piperazine-1-carboxylate] |
| Group I (Group I< or =1) | 0.3 fold response | O=C(CN1CCN(C(=O)OCc2ccccc2)CC1)N(Cc1ccc(O)cc1)Cc1ccc(O)cc1 [benzyl 4-(2-(bis(4-hydroxybenzyl)amino)-2-oxoethyl)piperazine-1-carboxylate] |
